Laboratory results published in the supplement of paper PMC11208160.

assay: recombinant UMI read abundance after kanamycin selection (control-corrected) (log10(CPM+1)); higher = more efficient recombination; extreme values may be limits of the assay; sequences stand for … in AGTGCAGAGAAAATCGGCCAGTTTTCTCTGCCTGCAGTCCGCATGCCGTGGGACCCCTTGGGTTCTAACCTGTTGCCTAGATTTATGCAGCGGACTGCCTTTCTCCCAAAGTGATAAACCGG…AGGTTGGTTTCACT; site = the 11-nt donor
Outline: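 In a pooled Escherichia coli screen for the IS621 bridge recombinase, donor and donor-binding-loop pairs were each placed with a 12-nt UMI on a plasmid bearing a promoterless kanamycin gene. This library was co-electroporated with a target plasmid encoding a fixed target and T7-inducible recombinase, and cells were plated either on IPTG (0.07 mM) plus kanamycin or without selection, in two replicates each. Recombinant UMIs were PCR-amplified across the donor–target junction and sequenced, and counts were converted to CPM, averaged over replicates, scaled by control-derived factors and reported as log10(CPM+1).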
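Note: IS621 bridge recombinase in Escherichia coli cells against a fixed T5 target plasmid.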

Compared with “AGGGAGACATGGACCGGTTTTCCCGGTAATCCGTATTTGCG (site AGGAAGACTTG)”, “AGGGAGACATGGACCGGTTTTCCCGGTAATCCGTATTTGCG (site AGGGAGACTCG)” is higher in “recombinant UMI read abundance (log10)” value: 0.64 for the first, 1.54 for the second.

Compared with “AGGGAGCCATGGACCGGTTTTCCCGGTAATCCGTATTTGCC (site AGGGAGCCTGG)”, “AGGGCTACATGGACCGGTTTTCCCGGTAATCCGTATTTGAC (site AGGACTACTGT)” is higher in “recombinant UMI read abundance (log10)” value: 0 for the first, 1.24 for the second.

Compared with “AGGGCTACATGGACCGGTTTTCCCGGTAATCCGTATTTGAC (site AGGCCTACTGT)”, “AGGGCTACATGGACCGGTTTTCCCGGTAATCCGTATTTGAC (site AGGGCTACTGT)” is higher in “recombinant UMI read abundance (log10)” value: 0 for the first, 2.55 for the second.

First: AGGGCTACATGGACCGGTTTTCCCGGTAATCCGTATTTGAC (site AGGTCTACTGT)
Second: AGGGTCCCATGGACCGGTTTTCCCGGTAATCCGTATTTGTC (site AGGGTCCCTGA)
The “recombinant UMI read abundance (log10)” value of the first is higher: 1 for the first, 0.534 for the second.

First: AGGTAAACATGGACCGGTTTTCCCGGTAATCCGTATTTGAG (site AGGTAAACTCT)
Second: AGGTAGACATGGACCGGTTTTCCCGGTAATCCGTATTTGCC (site AGGAAGACTTG)
The “recombinant UMI read abundance (log10)” value of the first is higher: 2.07 for the first, 0 for the second.

First: AGGTAGACATGGACCGGTTTTCCCGGTAATCCGTATTTGCC (site AGGTAGACTGG)
Second: AGGTAGGCATGGACCGGTTTTCCCGGTAATCCGTATTTGTT (site AGGTAGGCTAA)
The “recombinant UMI read abundance (log10)” value of the first is higher: 2.79 for the first, 1.94 for the second.

Compared with “AGGTATCCATGGACCGGTTTTCCCGGTAATCCGTATTTGTC (site AGGTATCCTGA)”, “AGGTCAGCATGGACCGGTTTTCCCGGTAATCCGTATTTGAT (site AGGTCAGCTAT)” is higher in “recombinant UMI read abundance (log10)” value: 0.494 for the first, 1.84 for the second.

First: AGGTCTACATGGACCGGTTTTCCCGGTAATCCGTATTTGAC (site AGGACTACTGT)
Second: AGGTCTACATGGACCGGTTTTCCCGGTAATCCGTATTTGAC (site AGGCCTACTGT)
The “recombinant UMI read abundance (log10)” value of the first is lower: 0 for the first, 2.1 for the second.

Going from “AGGTCTACATGGACCGGTTTTCCCGGTAATCCGTATTTGAC (site AGGGCTACTGT)” to “AGGTCTACATGGACCGGTTTTCCCGGTAATCCGTATTTGAC (site AGGTCTACTGT)”, the “recombinant UMI read abundance (log10)” value rises from 0.00558 to 1.18.

Going from “AGGTGCCCATGGACCGGTTTTCCCGGTAATCCGTATTTGGA (site AGGTGCCCTTC)” to “AGGTGGGCATGGACCGGTTTTCCCGGTAATCCGTATTTGTG (site AGGTGGGCTCA)”, the “recombinant UMI read abundance (log10)” value rises from 0.00688 to 1.56.

Going from “AGGTTAGCATGGACCGGTTTTCCCGGTAATCCGTATTTGAG (site AGGTTAGCTCT)” to “AGGTTCCCATGGACCGGTTTTCCCGGTAATCCGTATTTGTA (site AGGTTCCCTAA)”, the “recombinant UMI read abundance (log10)” value falls from 1.94 to 0.0166.

“AGGTTCCCATGGACCGGTTTTCCCGGTAATCCGTATTTGTA (site AGGTTCCCTCA)” and “AGGTTCCCATGGACCGGTTTTCCCGGTAATCCGTATTTGTA (site AGGTTCCCTGA)” are within 0.2 log units of each other in “recombinant UMI read abundance (log10)” value: 0.0195 for the first, 0 for the second.

Going from “AGGTTCCCATGGACCGGTTTTCCCGGTAATCCGTATTTGTA (site AGGTTCCCTTA)” to “AGGTTGCCATGGACCGGTTTTCCCGGTAATCCGTATTTGTG (site AGGTTACCTCA)”, the “recombinant UMI read abundance (log10)” value falls from 1.5 to 0.00238.

“AGGTTGCCATGGACCGGTTTTCCCGGTAATCCGTATTTGTG (site AGGTTCCCTCA)” and “AGGTTGCCATGGACCGGTTTTCCCGGTAATCCGTATTTGTG (site AGGTTGCCTCA)” are within 0.2 log units of each other in “recombinant UMI read abundance (log10)” value: 0.00991 for the first, 0.00688 for the second.

Going from “AGGTTGCCATGGACCGGTTTTCCCGGTAATCCGTATTTGTG (site AGGTTTCCTCA)” to “AGTAATGCATGGACCGGTTTTCCCGGTAATCCGTATTTGAG (site AGTAATGCTCT)”, the “recombinant UMI read abundance (log10)” value rises from 0.00563 to 2.15.

“AGTACACCATGGACCGGTTTTCCCGGTAATCCGTATTTGAC (site AGTACACCTGT)” and “AGTACACCATGGACCGGTTTTCCCGGTAATCCGTATTTGAC (site CGTACACCTGT)” are within 0.2 log units of each other in “recombinant UMI read abundance (log10)” value: 0 for the first, 0.0138 for the second.

“AGTACACCATGGACCGGTTTTCCCGGTAATCCGTATTTGAC (site GGTACACCTGT)” and “AGTACACCATGGACCGGTTTTCCCGGTAATCCGTATTTGAC (site TGTACACCTGT)” are the same in “recombinant UMI read abundance (log10)” value: 0 for the first, 0 for the second.

Going from “AGTAGATCATGGACCGGTTTTCCCGGTAATCCGTATTTGGA (site AGTAGATCTTC)” to “AGTAGGTCATGGACCGGTTTTCCCGGTAATCCGTATTTGAA (site AGTAGGTCTTT)”, the “recombinant UMI read abundance (log10)” value falls from 1.45 to 1.07.

Compared with “AGTCACTCATGGACCGGTTTTCCCGGTAATCCGTATTTGCA (site AGTCACTCTTG)”, “AGTCAGCCATGGACCGGTTTTCCCGGTAATCCGTATTTGGA (site AGTCAGCCTTC)” is lower in “recombinant UMI read abundance (log10)” value: 2.8 for the first, 0.0114 for the second.

“AGTCCACCATGGACCGGTTTTCCCGGTAATCCGTATTTGGG (site AGTCCACCTCC)” and “AGTCGGTCATGGACCGGTTTTCCCGGTAATCCGTATTTGGC (site AGTCGGTCTGC)” are within 0.2 log units of each other in “recombinant UMI read abundance (log10)” value: 0.00962 for the first, 0 for the second.

Compared with “AGTCTGACATGGACCGGTTTTCCCGGTAATCCGTATTTGCT (site AGTCTGACTAG)”, “AGTGCCACATGGACCGGTTTTCCCGGTAATCCGTATTTGAG (site AGTGCCACTCT)” is lower in “recombinant UMI read abundance (log10)” value: 1.87 for the first, 0.4 for the second.

“AGTGCCCCATGGACCGGTTTTCCCGGTAATCCGTATTTGCT (site AGTGCCCCTAG)” and “AGTGCTCCATGGACCGGTTTTCCCGGTAATCCGTATTTGAA (site AGTGCTCCTTT)” are within 0.2 log units of each other in “recombinant UMI read abundance (log10)” value: 0.594 for the first, 0.416 for the second.

Compared with “AGTTACACATGGACCGGTTTTCCCGGTAATCCGTATTTGCC (site AGTTACACTGG)”, “AGTTATGCATGGACCGGTTTTCCCGGTAATCCGTATTTGGA (site AATTATGCTTC)” is lower in “recombinant UMI read abundance (log10)” value: 2.42 for the first, 0.159 for the second.

“AGTTATGCATGGACCGGTTTTCCCGGTAATCCGTATTTGGA (site ACTTATGCTTC)” and “AGTTATGCATGGACCGGTTTTCCCGGTAATCCGTATTTGGA (site AGTTATGCTTC)” are within 0.2 log units of each other in “recombinant UMI read abundance (log10)” value: 0.849 for the first, 0.923 for the second.

“AGTTATGCATGGACCGGTTTTCCCGGTAATCCGTATTTGGA (site ATTTATGCTTC)” and “AGTTGTACATGGACCGGTTTTCCCGGTAATCCGTATTTGGT (site AGTTGTACTAC)” are within 0.2 log units of each other in “recombinant UMI read abundance (log10)” value: 0.709 for the first, 0.56 for the second.

Compared with “AGTTGTCCATGGACCGGTTTTCCCGGTAATCCGTATTTGGG (site AGTTGTCCTCC)”, “AGTTGTGCATGGACCGGTTTTCCCGGTAATCCGTATTTGAA (site AGTTGTGCTTT)” is higher in “recombinant UMI read abundance (log10)” value: 0.0152 for the first, 0.535 for the second.

Going from “AGTTGTTCATGGACCGGTTTTCCCGGTAATCCGTATTTGGC (site AGTTGTTCTGC)” to “AGTTTGGCATGGACCGGTTTTCCCGGTAATCCGTATTTGCT (site AGTTTGGCTAG)”, the “recombinant UMI read abundance (log10)” value falls from 1.34 to 0.0222.

“AGTTTGGCATGGACCGGTTTTCCCGGTAATCCGTATTTGCT (site CGTTTGGCTAG)” and “AGTTTGGCATGGACCGGTTTTCCCGGTAATCCGTATTTGCT (site GGTTTGGCTAG)” are the same in “recombinant UMI read abundance (log10)” value: 0 for the first, 0 for the second.

Compared with “AGTTTGGCATGGACCGGTTTTCCCGGTAATCCGTATTTGCT (site TGTTTGGCTAG)”, “ATAAAGGCATGGACCGGTTTTCCCGGTAATCCGTATTTGGG (site ATAAAGGCTCC)” is higher in “recombinant UMI read abundance (log10)” value: 0.0837 for the first, 1.03 for the second.

Going from “ATAACTCCATGGACCGGTTTTCCCGGTAATCCGTATTTGCC (site ATAACTCCTGG)” to “ATAAGCACATGGACCGGTTTTCCCGGTAATCCGTATTTGAT (site ATAAGCACTAT)”, the “recombinant UMI read abundance (log10)” value rises from 1.64 to 2.23.

Going from “ATAAGCCCATGGACCGGTTTTCCCGGTAATCCGTATTTGAC (site ATAAGACCTGT)” to “ATAAGCCCATGGACCGGTTTTCCCGGTAATCCGTATTTGAC (site ATAAGCCCTGT)”, the “recombinant UMI read abundance (log10)” value rises from 0 to 2.3.

Going from “ATAAGCCCATGGACCGGTTTTCCCGGTAATCCGTATTTGAC (site ATAAGGCCTGT)” to “ATAAGCCCATGGACCGGTTTTCCCGGTAATCCGTATTTGAC (site ATAAGTCCTGT)”, the “recombinant UMI read abundance (log10)” value rises from 0.528 to 0.889.

First: ATAAGGCCATGGACCGGTTTTCCCGGTAATCCGTATTTGTC (site ATAAGGCCTGA)
Second: ATAAGGCCATGGACCGGTTTTCCCGGTAATCCGTATTTGTC (site ATAAGGCCTGC)
The “recombinant UMI read abundance (log10)” value of the first is higher: 1.94 for the first, 0 for the second.

Going from “ATAAGGCCATGGACCGGTTTTCCCGGTAATCCGTATTTGTC (site ATAAGGCCTGG)” to “ATAAGGCCATGGACCGGTTTTCCCGGTAATCCGTATTTGTC (site ATAAGGCCTGT)”, the “recombinant UMI read abundance (log10)” value falls from 2.46 to 0.

Compared with “ATAAGGTCATGGACCGGTTTTCCCGGTAATCCGTATTTGCA (site ATAAGGTCTTG)”, “ATACAAGCATGGACCGGTTTTCCCGGTAATCCGTATTTGAG (site ATACAAGCTCT)” is lower in “recombinant UMI read abundance (log10)” value: 2.96 for the first, 2.31 for the second.

“ATACAAGCATGGACCGGTTTTCCCGGTAATCCGTATTTGAG (site ATCCAAGCTCT)” and “ATACAAGCATGGACCGGTTTTCCCGGTAATCCGTATTTGAG (site ATGCAAGCTCT)” are within 0.2 log units of each other in “recombinant UMI read abundance (log10)” value: 0.803 for the first, 0.923 for the second.

Going from “ATACAAGCATGGACCGGTTTTCCCGGTAATCCGTATTTGAG (site ATTCAAGCTCT)” to “ATACATGCATGGACCGGTTTTCCCGGTAATCCGTATTTGCT (site ATACATGCTAG)”, the “recombinant UMI read abundance (log10)” value rises from 0.673 to 2.75.

With “ATACGGCCATGGACCGGTTTTCCCGGTAATCCGTATTTGAC (site ATAAGGCCTGT)” the “recombinant UMI read abundance (log10)” value was 0.
